Each molecule was assayed on HIV-IIIb (assay: Test A: Antiviral Assays in MT4 Cells). Settings: Human immunodeficiency virus 1, IIIB, MT4, 120 h.
Type: cell-based
Method in brief: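 MT-4 cells pre-infected with HIV-IIIb (0.004 m.o.i.) at 37 °C, then plated with 3-fold serially diluted compound (10 concentrations, quadruplicate, RPMI 1640/10% FBS). After 5 days at 37 °C, cell viability read by CellTiter-Glo chemiluminescence; mock-infected cells run in parallel.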

Row | SMILES | EC50
1 | Cc1cc2cc(F)c(F)cc2c(-c2ccc3c4c(ccnc24)CCO3)c1[C@H](OC(C)(C)C)C(=O)O [Compound 108, (S)-2-tert-Butoxy-2-((R)-1-(2,3-dihydropyrano[4,3,2-de]quinolin-7-yl)-6,7-difluoro-3-methylnaphthalen-2-yl)acetic acid] | 28 nM
2 | Cc1cc2c(F)cc(F)cc2c(-c2ccc3c4c(ccnc24)CCO3)c1[C@H](OC(C)(C)C)C(=O)O [Compound 110, (S)-2-tert-Butoxy-2-((R)-1-(2,3-dihydropyrano[4,3,2-de]quinolin-7-yl)-5,7-difluoro-3-methylnaphthalen-2-yl)acetic acid] | 67 nM

Same assay, conditions: Human immunodeficiency virus 1, IIIB, MT4, 120 h, MT-4 cells infected with HIV-IIIb (0.004 m.o.i.), 5 days of incubation, CellTiter-Glo chemiluminescence readout; read-out: EC50

Row | SMILES | EC50
3 | Cc1cc2ccc(C#CC(C)(C)N(C)C)cc2c(-c2ccc(Cl)cc2)c1C(OC(C)(C)C)C(=O)O (stereo not drawn) [Compound 95, 2-tert-Butoxy-2-(1-(4-chlorophenyl)-7-(3-(dimethylamino)-3-methylbut-1-ynyl)-3-methylnaphthalen-2-yl)acetic acid] | 380 nM
4 | CC(=O)NC(C)(C)C#Cc1ccc2cc(C)c(C(OC(C)(C)C)C(=O)O)c(-c3ccc(Cl)cc3)c2c1 (stereo not drawn) [Compound 96, 2-(7-(3-Acetamido-3-methylbut-1-ynyl)-1-(4-chlorophenyl)-3-methylnaphthalen-2-yl)-2-tert-butoxyacetic acid] | 88 nM
5 | COC(=O)NC(C)(C)C#Cc1ccc2cc(C)c(C(OC(C)(C)C)C(=O)O)c(-c3ccc(Cl)cc3)c2c1 (stereo not drawn) [Compound 97, 2-tert-Butoxy-2-(1-(4-chlorophenyl)-7-(3-(methoxycarbonylamino)-3-methylbut-1-ynyl)-3-methylnaphthalen-2-yl)acetic acid] | 300 nM
6 | Cc1cc2ccc(C#CC(C)(C)N)cc2c(-c2ccc(Cl)cc2)c1[C@H](OC(C)(C)C)C(=O)O [Compound 98, (S)-2-(7-(3-Amino-3-methylbut-1-ynyl)-1-(4-chlorophenyl)-3-methylnaphthalen-2-yl)-2-tert-butoxyacetic acid] | 10 nM
7 | Cc1cc2ccc(C#CC(C)(C)O)cc2c(-c2ccc(Cl)cc2)c1[C@H](OC(C)(C)C)C(=O)O [Compound 99, (S)-2-tert-Butoxy-2-(1-(4-chlorophenyl)-7-(3-hydroxy-3-methylbut-1-ynyl)-3-methylnaphthalen-2-yl)acetic acid] | 107 nM
8 | Cc1cc2ccc(C#CC3(N)CCCCC3)cc2c(-c2ccc(Cl)cc2)c1[C@H](OC(C)(C)C)C(=O)O [Compound 100, (S)-2-(7-((1-Aminocyclohexyl)ethynyl)-1-(4-chlorophenyl)-3-methylnaphthalen-2-yl)-2-tert-butoxyacetic acid] | 23 nM
9 | Cc1cc2c(Cl)cc(F)cc2c(-c2ccc3c4c(ccnc24)CCO3)c1[C@H](OC(C)(C)C)C(=O)O [Compound 111, (2S)-2-tert-Butoxy-2-(5-chloro-1-(2,3-dihydropyrano[4,3,2-de]quinolin-7-yl)-7-fluoro-3-methylnaphthalen-2-yl)acetic acid] | 1100 nM
10 | Cc1c(C(OC(C)(C)C)C(=O)O)c(-c2ccc(Cl)cc2)c2ccccc2c1Br (stereo not drawn) [Compound 126, 2-(4-Bromo-1-(4-chlorophenyl)-3-methylnaphthalen-2-yl)-2-tert-butoxyacetic acid] | 833 nM
11 | Cc1c(C(OC(C)(C)C)C(=O)O)c(-c2ccc(Cl)cc2)c2ccccc2c1C (stereo not drawn) [Compound 127, 2-tert-Butoxy-2-(1-(4-chlorophenyl)-3,4-dimethylnaphthalen-2-yl)acetic acid] | 87 nM

Same assay, conditions: MT-4 cells infected with HIV-IIIb (0.004 m.o.i.), 5 days of incubation, CellTiter-Glo chemiluminescence readout; read-out: EC50

Row | SMILES | EC50
12 | Cc1cc2cc(Cl)c(F)cc2c(-c2ccc3c4c(ccnc24)CCO3)c1[C@H](OC(C)(C)C)C(=O)O [Compound 101, (S)-2-tert-Butoxy-2-((R)-6-chloro-1-(2,3-dihydropyrano[4,3,2-de]quinolin-7-yl)-7-fluoro-3-methylnaphthalen-2-yl)acetic acid] | 41 nM
13 | Cc1cc2cc(C(C)C)c(F)cc2c(-c2ccc3c4c(ccnc24)CCO3)c1[C@H](OC(C)(C)C)C(=O)O [Compound 102, (S)-2-tert-Butoxy-2-((R)-1-(2,3-dihydropyrano[4,3,2-de]quinolin-7-yl)-7-fluoro-6-isopropyl-3-methylnaphthalen-2-yl)acetic acid] | 37 nM
14 | Cc1cc2cc(C(F)F)c(F)cc2c(-c2ccc3c4c(ccnc24)CCO3)c1[C@H](OC(C)(C)C)C(=O)O [Compound 103, (S)-2-tert-Butoxy-2-((R)-6-(difluoromethyl)-1-(2,3-dihydropyrano[4,3,2-de]quinolin-7-yl)-7-fluoro-3-methylnaphthalen-2-yl)acetic acid] | 26 nM
15 | CCc1cc2cc(C)c([C@H](OC(C)(C)C)C(=O)O)c(-c3ccc4c5c(ccnc35)CCO4)c2cc1F [Compound 104, (S)-2-tert-Butoxy-2-((R)-1-(2,3-dihydropyrano[4,3,2-de]quinolin-7-yl)-6-ethyl-7-fluoro-3-methylnaphthalen-2-yl)acetic acid] | 36 nM
16 | Cc1cc2cc(C3CC3)c(F)cc2c(-c2ccc3c4c(ccnc24)CCO3)c1[C@H](OC(C)(C)C)C(=O)O [Compound 105, (S)-2-tert-Butoxy-2-((R)-6-cyclopropyl-1-(2,3-dihydropyrano[4,3,2de]quinolin-7-yl)-7-fluoro-3-methylnaphthalen-2-yl)acetic acid] | 43 nM
17 | Cc1cc2cc(C#N)c(F)cc2c(-c2ccc3c4c(ccnc24)CCO3)c1[C@H](OC(C)(C)C)C(=O)O [Compound 106A, (S)-2-tert-Butoxy-2-((R)-6-cyano-1-(2,3-dihydropyrano[4,3,2-de]quinolin-7-yl)-7-fluoro-3-methylnaphthalen-2-yl)acetic acid] | 86 nM
18 | Cc1cc2cc(C(N)=O)c(F)cc2c(-c2ccc3c4c(ccnc24)CCO3)c1[C@H](OC(C)(C)C)C(=O)O [Compound 106B, (S)-2-tert-Butoxy-2-((R)-6-carbamoyl-1-(2,3-dihydropyrano[4,3,2-de]quinolin-7-yl)-7-fluoro-3-methylnaphthalen-2-yl)acetic acid] | 91 nM
19 | CNC(=O)c1cc2cc(C)c([C@H](OC(C)(C)C)C(=O)O)c(-c3ccc4c5c(ccnc35)CCO4)c2cc1F [Compound 107, (S)-2-tert-Butoxy-2-((R)-1-(2,3-dihydropyrano[4,3,2-de]quinolin-7-yl)-7-fluoro-3-methyl-6-(methylcarbamoyl)naphthalen-2-yl)acetic acid] | 92 nM
20 | Cc1cc2cc(F)c(F)cc2c(-c2ccc3c4c(ccnc24)CCO3)c1[C@@H](OC(C)(C)C)C(=O)O [Compound 109, (R)-2-tert-Butoxy-2-((R)-1-(2,3-dihydropyrano[4,3,2-de]quinolin-7-yl)-6,7-difluoro-3-methylnaphthalen-2-yl)acetic acid] | 29000 nM
21 | Cc1cc2cc(C)c([C@H](OC(C)(C)C)C(=O)O)c(-c3ccc4c5c(ccnc35)CCO4)c2cc1F [Compound 112, (S)-2-tert-Butoxy-2-((R)-1-(2,3-dihydropyrano[4,3,2-de]quinolin-7-yl)-7-fluoro-3,6-dimethylnaphthalen-2-yl)acetic acid] | 9 nM
22 | Cc1cc2c(C#N)cc(F)cc2c(-c2ccc3c4c(ccnc24)CCO3)c1[C@H](OC(C)(C)C)C(=O)O [Compound 113A, (S)-2-tert-Butoxy-2-((R)-5-cyano-1-(2,3-dihydropyrano[4,3,2-de]quinolin-7-yl)-7-fluoro-3-methylnaphthalen-2-yl)acetic acid] | 910 nM
23 | Cc1cc2c(C(N)=O)cc(F)cc2c(-c2ccc3c4c(ccnc24)CCO3)c1[C@H](OC(C)(C)C)C(=O)O [Compound 113B, (S)-2-tert-Butoxy-2-((R)-5-carbamoyl-1-(2,3-dihydropyrano[4,3,2-de]quinolin-7-yl)-7-fluoro-3-methylnaphthalen-2-yl)acetic acid] | 460 nM
24 | Cc1cc2c(-c3cncnc3)cc(F)cc2c(-c2ccc3c4c(ccnc24)CCO3)c1[C@H](OC(C)(C)C)C(=O)O [Compound 114, (S)-2-tert-butoxy-2-((R)-1-(2,3-dihydropyrano[4,3,2-de]quinolin-7-yl)-7-fluoro-3-methyl-5-(pyrimidin-5-yl)naphthalen-2-yl)acetic acid] | 1900 nM
25 | Cc1cc2c(F)c(Cl)ccc2c(-c2ccc3c4c(ccnc24)CCO3)c1[C@H](OC(C)(C)C)C(=O)O [Compound 115, (S)-2-tert-Butoxy-2-((R)-6-chloro-1-(2,3-dihydropyrano[4,3,2-de]quinolin-7-yl)-5-fluoro-3-methylnaphthalen-2-yl)acetic acid] | 37 nM
26 | Cc1cc2c(Cl)c(C)ccc2c(-c2ccc3c4c(ccnc24)CCO3)c1[C@H](OC(C)(C)C)C(=O)O [Compound 116, (S)-2-tert-Butoxy-2-((R)-5-chloro-1-(2,3-dihydropyrano[4,3,2-de]quinolin-7-yl)-3,6-dimethylnaphthalen-2-yl)acetic acid] | 16 nM
27 | Cc1cc2c(C)c(C)ccc2c(-c2ccc3c4c(ccnc24)CCO3)c1[C@H](OC(C)(C)C)C(=O)O [Compound 117, (S)-2-tert-Butoxy-2-((R)-1-(2,3-dihydropyrano[4,3,2-de]quinolin-7-yl)-3,5,6-trimethylnaphthalen-2-yl)acetic acid] | 11 nM
28 | Cc1cc2c(F)c(C)ccc2c(-c2ccc3c4c(ccnc24)CCO3)c1[C@H](OC(C)(C)C)C(=O)O [Compound 119, (S)-2-tert-Butoxy-2-((R)-1-(2,3-dihydropyrano[4,3,2-de]quinolin-7-yl)-5-fluoro-3,6-dimethylnaphthalen-2-yl)acetic acid] | 11 nM
29 | Cc1cc2c(F)c(C(F)F)ccc2c(-c2ccc3c4c(ccnc24)CCO3)c1[C@H](OC(C)(C)C)C(=O)O [Compound 121, (S)-2-tert-Butoxy-2-((R)-6-(difluoromethyl)-1-(2,3-dihydropyrano[4,3,2-de]quinolin-7-yl)-5-fluoro-3-methylnaphthalen-2-yl)acetic acid] | 14 nM
30 | Cc1c([C@H](OC(C)(C)C)C(=O)O)c(-c2ccc3c4c(ccnc24)CCO3)c2ccccc2c1F [Compound 122, (2S)-2-tert-butoxy-2-((R)-1-(2,3-dihydropyrano[4,3,2-de]quinolin-7-yl)-4-fluoro-3-methylnaphthalen-2-yl)acetic acid] | 36 nM
